Assay results from patent US20090270391A1, “THIENOPYRIDINE DERIVATIVE, OR QUINOLINE DERIVATIVE, OR QUINAZOLINE DERIVATIVE, HAVING c-MET AUTOPHOSPHORYLATION INHIBITING POTENCY” (Kirin Pharma Kabushiki Kaisha, priority 2005, published 2009).

Legend:
c-Met [1] = target: T1, c-Met (Homo sapiens, UniProt P08581); experiment: c-Met autophosphorylation inhibitory activity (general statement)
Target sequence in this assay (P08581 25-1390): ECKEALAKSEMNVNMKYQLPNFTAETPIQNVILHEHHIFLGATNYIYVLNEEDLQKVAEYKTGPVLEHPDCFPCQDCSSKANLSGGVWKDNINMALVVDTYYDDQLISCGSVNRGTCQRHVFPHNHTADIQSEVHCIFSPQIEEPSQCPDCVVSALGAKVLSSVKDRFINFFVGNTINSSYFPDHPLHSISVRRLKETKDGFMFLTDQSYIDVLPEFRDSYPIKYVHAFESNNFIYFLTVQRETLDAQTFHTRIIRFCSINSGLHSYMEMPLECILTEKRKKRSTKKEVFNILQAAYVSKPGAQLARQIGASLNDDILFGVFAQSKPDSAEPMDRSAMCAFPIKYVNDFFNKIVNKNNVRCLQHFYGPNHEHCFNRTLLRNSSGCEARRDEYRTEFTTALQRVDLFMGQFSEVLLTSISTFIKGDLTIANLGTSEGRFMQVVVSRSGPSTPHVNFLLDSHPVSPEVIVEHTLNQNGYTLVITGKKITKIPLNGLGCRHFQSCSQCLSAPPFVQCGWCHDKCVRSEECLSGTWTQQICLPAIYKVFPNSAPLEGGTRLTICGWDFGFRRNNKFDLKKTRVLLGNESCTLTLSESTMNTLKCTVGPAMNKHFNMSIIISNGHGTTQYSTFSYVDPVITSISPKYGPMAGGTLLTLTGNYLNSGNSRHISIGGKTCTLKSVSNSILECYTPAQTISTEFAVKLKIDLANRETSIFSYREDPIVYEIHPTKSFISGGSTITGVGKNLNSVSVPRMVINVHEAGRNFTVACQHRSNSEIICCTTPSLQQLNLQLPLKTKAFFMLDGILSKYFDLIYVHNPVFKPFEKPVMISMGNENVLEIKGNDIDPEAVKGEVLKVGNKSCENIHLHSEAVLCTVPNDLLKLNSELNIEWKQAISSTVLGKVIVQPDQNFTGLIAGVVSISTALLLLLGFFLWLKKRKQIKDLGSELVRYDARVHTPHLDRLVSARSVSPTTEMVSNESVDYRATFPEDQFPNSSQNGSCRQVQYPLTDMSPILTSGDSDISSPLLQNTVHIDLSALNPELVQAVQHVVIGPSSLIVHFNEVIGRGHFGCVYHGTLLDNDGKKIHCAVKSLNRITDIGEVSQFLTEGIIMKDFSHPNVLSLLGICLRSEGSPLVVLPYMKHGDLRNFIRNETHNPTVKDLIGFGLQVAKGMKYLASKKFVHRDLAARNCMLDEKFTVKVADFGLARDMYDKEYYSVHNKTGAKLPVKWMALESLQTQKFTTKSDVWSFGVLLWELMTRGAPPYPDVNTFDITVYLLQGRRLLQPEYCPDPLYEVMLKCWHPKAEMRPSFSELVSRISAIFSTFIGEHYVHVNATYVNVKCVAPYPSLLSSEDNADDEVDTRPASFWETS

KDR = KDR (Homo sapiens, UniProt P35968); experiment: KDR autophosphorylation inhibitory activity (general statement)
[2] = system: Human gastric cancer cell line MKN 45; experiment: Tumor growth inhibitory activity against human gastric cancer cell line MKN 45 in nude mice; assay type: in vivo; settings: oral once a day
Method: Human gastric cancer cell line MKN 45 (available from Riken) was transplanted into nude mice. […] The test compound suspended in 0.5% methylcellulose was orally administered once a day for 9 days.
Only 0.5% methylcellulose was administered to the control group in the same manner as in the test groups. The tumor growth inhibition rate (TGIR) was calculated as follows: The tumor growth inhibition rate (TGIR)=(1−TX/CX)×100 wherein CX represents the volume of tumor at day X for the control group and TX represents the volume of tumor for test compound administration groups, when the tumor volume at the day of the start of the administration was presumed to be 1.

c-Met [3] = target: T1, c-Met; experiment: Measurement (2) of inhibitory activity against c-Met autophosphorylation using ELISA method (MKN45 cells); assay type: cell-based; set-up: endogenous in cells; host or cells: MKN45; settings: c-Met phosphorylation in MKN45 cells, no HGF
Method: Human gastric cancer cell line MKN45 (available from Riken) was cultured in an RPMI 1640 medium containing 10% fetal calf serum (purchased from GIBCO BRL) within a 5% carbon dioxide incubator until 50 to 90% confluent. The harvested cells were inoculated into wells, containing an RPMI medium containing 0.1% fetal calf serum, in a 96-well flat-bottom plate in an amount of 2×10^4 per well, followed by cultivation at 37° C. overnight. The medium was then replaced by a fresh RPMI medium containing 0.1% fetal calf serum. The test compound dissolved in dimethyl sulfoxide was added to each well, and the cultivation was continued at 37° C. for additional one hr. The medium was removed, the cells were washed with phosphate buffered physiological saline (pH 7.4), and 50 μl of a solubilization buffer (20 mM HEPES (pH 7.4), 150 mM NaCl, 0.2%/0 Triton X-100, 100, 10% glycerol, 5 mM sodium orthovanadylate, 5 mM disodium ethylenediaminetetraacetate, and 2 mM Na4P2O7) was then added thereto. The mixture was shaken at 4° C. for 2 hr to prepare a cell extract.
Separately, phosphate buffered physiological saline (50 μl, pH 7.4) containing 5 μg/ml anti-phospho-tyrosine antibody (PY20; purchased from Transduction Laboratories) was added to a microplate for ELISA (Maxisorp; purchased from NUNC), followed by standing at 4° C. overnight to form a solid phase. After washing of the plate, 300 μl of a blocking solution was added, followed by standing at room temperature for 2 hr to perform blocking. After washing, the whole quantity of the cell extract was transferred, and the plate was then allowed to stand at 4° C. overnight. After washing, an anti-HGF receptor antibody (h-Met (C-12), purchased from Santa Cruz Biotechnology) was allowed to react at room temperature for one hr, and, after washing, a peroxidase-labeled anti-rabbit Ig antibody (purchased from Amersham) was allowed to react at room temperature for one hr. After washing, a chromophoric substrate for peroxidase (purchased from Sumitomo Bakelite Co., Ltd.) was added thereto to initiate a reaction. After a suitable level of color development, a reaction termination solution was added to stop the reaction, and the absorbance at 450 nm was measured with a microplate reader. The c-Met phosphorylation activity for each well was determined by presuming the absorbance without the addition of the test compound to be 100% c-Met phosphorylation activity and the absorbance with the addition of a largely excessive amount of positive control to be 0% c-Met phosphorylation activity. The concentration of the test compound was varied on several levels, the inhibition rate of c-Met-phosphorylation was determined for each case, and the concentration of the test compound necessary for inhibiting 50% of c-Met phosphorylation (IC50) was calculated.
Target sequence in this assay (P08581 25-1390): as above

c-Met [4] = target: T1, c-Met; experiment: Measurement of human c-Met enzyme inhibitory activity (ELISA, Poly Glu:Tyr); assay type: biochemical; set-up: a part (955 to 1368aa) around human c-Met kinase domain; GST; made in house; host or cells: SF9 insect cells (baculovirus); settings: human c-Met kinase domain (955 to 1368aa), ATP 10 μM
Description: cDNA coding for a part (955 to 1368aa) around human c-Met kinase domain was integrated into a pFastBac vector (Invitrogen) with a GST tag inserted therein, followed by transformation into DH10Bac to give Bacmid DNA which was then introduced into SF9 cells (GIBCO). Infection with a virus liquid was repeated five times, and SF9 cells were then broken, followed by purification using a GSH column to give a c-Met kinase active protein.
Poly Glu: Tyr=4:1 (SIGMA) was coated onto a 96-well immunoplate (442404, NALGE NUNC International K.K.). Kinase buffer (50 mM HEPES (pH 7.5), 25 mM NaCl, 0.01 mM Na3VO4, 0.01% BSA), a test compound, and the kinase protein were added, and the mixture was incubated for 10 min. ATP (10 μM, SIGMA) was then added, and a reaction was allowed to proceed for 10 min. The plate was washed three times with PBST and was reacted with a primary antibody PY-20 (BD-610000, B.D. Bioscience) and a secondary antibody GAM (NA-9310V, Abersham) each at room temperature for one hr. The plate was washed with PBST, color development was then carried out with SUMILON (ML-1120T, Sumitomo Bakelite Co., Ltd.), and phosphorylated tyrosine was quantitatively determined by measuring the absorbance at 450 nm. IC50 was calculated based on a concentration difference curve for the test compound by presuming the absorbance of the wells without the addition of ATP to be 100% inhibition and the absorbance of the wells with the addition of the medium for the test compound and ATP to be 0% inhibition.
Target sequence in this assay (P08581 955-1368): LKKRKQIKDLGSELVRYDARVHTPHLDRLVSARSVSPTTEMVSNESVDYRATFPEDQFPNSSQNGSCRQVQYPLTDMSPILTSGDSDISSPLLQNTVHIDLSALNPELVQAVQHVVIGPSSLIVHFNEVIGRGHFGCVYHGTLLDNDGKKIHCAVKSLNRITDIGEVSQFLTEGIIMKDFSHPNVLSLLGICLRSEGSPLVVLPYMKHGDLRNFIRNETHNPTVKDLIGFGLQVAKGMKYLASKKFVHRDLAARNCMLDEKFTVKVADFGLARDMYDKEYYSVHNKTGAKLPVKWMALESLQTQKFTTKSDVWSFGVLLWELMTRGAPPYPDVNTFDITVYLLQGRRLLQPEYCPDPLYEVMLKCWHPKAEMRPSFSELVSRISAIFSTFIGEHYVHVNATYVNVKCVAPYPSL

Sequence of KDR (P35968 20-1356): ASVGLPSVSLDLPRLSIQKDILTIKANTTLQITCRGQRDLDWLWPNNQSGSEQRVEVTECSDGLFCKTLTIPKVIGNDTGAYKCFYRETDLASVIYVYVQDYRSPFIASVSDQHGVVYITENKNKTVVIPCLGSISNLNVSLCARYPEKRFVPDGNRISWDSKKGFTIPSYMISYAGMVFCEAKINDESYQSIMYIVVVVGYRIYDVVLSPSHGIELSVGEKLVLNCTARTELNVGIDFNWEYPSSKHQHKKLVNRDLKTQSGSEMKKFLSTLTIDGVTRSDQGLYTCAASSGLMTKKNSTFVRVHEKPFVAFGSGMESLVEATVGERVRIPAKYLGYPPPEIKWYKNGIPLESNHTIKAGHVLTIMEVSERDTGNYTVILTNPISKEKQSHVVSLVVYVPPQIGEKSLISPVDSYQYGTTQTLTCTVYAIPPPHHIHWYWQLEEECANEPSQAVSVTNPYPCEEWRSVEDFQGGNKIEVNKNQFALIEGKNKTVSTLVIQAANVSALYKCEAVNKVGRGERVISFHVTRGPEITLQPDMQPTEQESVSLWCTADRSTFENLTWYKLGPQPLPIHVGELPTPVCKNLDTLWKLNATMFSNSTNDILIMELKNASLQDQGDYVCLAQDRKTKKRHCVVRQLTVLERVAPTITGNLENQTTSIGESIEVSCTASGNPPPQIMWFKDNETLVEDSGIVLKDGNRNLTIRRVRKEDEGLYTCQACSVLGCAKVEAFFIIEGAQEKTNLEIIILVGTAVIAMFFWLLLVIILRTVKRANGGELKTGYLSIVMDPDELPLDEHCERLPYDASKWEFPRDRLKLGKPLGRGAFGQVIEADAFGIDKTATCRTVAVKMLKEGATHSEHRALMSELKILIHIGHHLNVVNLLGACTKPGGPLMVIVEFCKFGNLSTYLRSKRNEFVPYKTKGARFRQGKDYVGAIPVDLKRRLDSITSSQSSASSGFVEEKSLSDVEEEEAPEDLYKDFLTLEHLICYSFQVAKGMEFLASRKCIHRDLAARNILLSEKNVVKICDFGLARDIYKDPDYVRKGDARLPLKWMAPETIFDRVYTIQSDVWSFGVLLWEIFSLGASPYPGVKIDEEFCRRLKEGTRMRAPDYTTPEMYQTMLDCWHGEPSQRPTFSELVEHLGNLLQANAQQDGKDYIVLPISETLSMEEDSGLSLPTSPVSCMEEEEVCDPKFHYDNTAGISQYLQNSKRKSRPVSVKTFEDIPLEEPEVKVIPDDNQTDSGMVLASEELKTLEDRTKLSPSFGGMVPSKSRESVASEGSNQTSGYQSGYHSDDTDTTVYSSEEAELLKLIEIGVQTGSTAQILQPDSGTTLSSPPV

Row | Compound | c-Met autophosphorylation inhibitory activity (c-Met [1]) | KDR autophosphorylation inhibitory activity (KDR) | IC50 (c-Met [3]) [nM] | IC50 (c-Met [4]) [nM] | TGIR (tumor growth inhibition rate) ([2]; 9th day) [%] | TGIR (tumor growth inhibition rate) ([2]; 10th day) [%]
1 | COc1cc(Oc2ccnc3cc(OCCCN4CCOCC4)c(OC)cc23)ccc1NC(=S)NC(=O)Cc1ccccc1 [Compound B, N-{2-methoxy-4-[6-methoxy-7-(3-morpholinopropoxy)-4-quinolyl]oxyphenyl}-N′-(2-phenylacetyl)thiourea] | high | low | – | – | – | –
2 | Cn1ccnc1-c1cc2nccc(Oc3ccc(NC(=S)NC(=O)Cc4ccc(F)cc4)cc3Cl)c2s1 [Example 1, N-(3-Chloro-4-{[2-(1-methyl-1H-2-imidazolyl)thieno[3,2-b]pyridin-7-yl]oxy}phenyl)-N-[2-(4-fluorophenyl)-acetyl]thiourea] | – | – | 32.8 | 3.2 | 63.8 | –
3 | COc1cc(Oc2ccnc3cc(OC)c(OC)cc23)ccc1NC(=S)NC(=O)Cn1ncc2ccccc21 [Example 15, N-4-[(6,7-Dimethoxy-4-quinolyl)oxy]-2-methoxyphenyl-N′-[2-(1 H-1-indazolyl)acetyl]thiourea] | – | – | 13.2 | 9.6 | – | –

Now from value to compound, other results behind:

Row | c-Met autophosphorylation inhibitory activity (c-Met [1]) | KDR autophosphorylation inhibitory activity (KDR) | IC50 (c-Met [3]) [nM] | IC50 (c-Met [4]) [nM] | Compound | TGIR (tumor growth inhibition rate) ([2]; 9th day) [%] | TGIR (tumor growth inhibition rate) ([2]; 10th day) [%]
4 | – | – | 22.3 | 12.5 | COc1cc2nccc(Oc3ccc(NC(=O)NC(=O)Cn4ncc5ccccc54)cc3F)c2cc1OC [Example 14, N-4-[(6,7-Dimethoxy-4-quinolyl)oxy]-3-fluorophenyl-N′-[2-(1H-1-indazolyl)acetyl]urea] | – | 42.6
5 | – | – | 35.9 | – | COc1cc2nccc(Oc3ccc(NC(=O)NC(=O)Cn4ccc5ccccc54)cc3F)c2cc1OC [Example 16, N-4-[(6,7-Dimethoxy-4-quinolyl)oxy]-3-fluorophenyl-N′-[2-(1H-1-indolyl)acetyl]urea] | – | –
